Values joined by “and” are separate entries in the source; they are usually repeats but may differ in a detail not shown here. Equal values may be shown once.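 Exposure lasted 48 hours, with cells grown in 96-well plates and compounds tested at five concentrations. GI50 = concentration required for 50% inhibition of growth. TGI: concentration producing complete growth inhibition.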
test system: HT29 colon; experiment: DTP human tumour cell line panel, 48 h

| Structure (SMILES) | TGI [µM] |
| --- | --- |
| Cc1ccc(-c2cc(-c3ccco3)c(C#N)c(=S)n2C2OC(CO)C(O)C(O)C2O)cc1 (stereo unspecified) | > 100 |
| O=C(OCc1ccccc1)N1CCNCCN(C(=O)OCc2ccccc2)CCNCC1 | 42 |
| O=C(Cc1ccc(O)c(O)c1)NCc1c[nH]c2ccccc12 | > 100 |
| COc1nncc2[nH]c(-c3ccccc3)cc12 | > 100 |
| O=S(=O)(c1ccccc1)c1cccc2c1NCCC2 | > 100 |
| COP(=O)(OC)C1=c2c(C)noc2=C2C=COC2C1=O (stereo unspecified) | > 100 |
| COc1cccc(C2SC(N)=Nc3c2c(C)nn3C(=O)c2ccccc2O)c1 (stereo unspecified) | > 10 |

test system: UACC-62 melanoma; experiment: DTP human tumour cell line panel, 48 h

| Structure (SMILES) | TGI | GI50 [µM] |
| --- | --- | --- |
| CCOC(=O)c1c(CN2CCCC2)n(-c2ccccc2)c2cc(Br)c(O)cc12 | 31.1 µM | – |
| COc1cccc(Nc2nc(-c3cccs3)nc3cc(OC)c(OC)cc23)c1 | 39.8 µM | – |
| Nn1c(-c2ccccc2)n[nH]c1=O | > 100 µM | – |
| Nn1c(Nc2ccc(S(=O)(=O)Nc3ncccn3)cc2)nnc(/C=C/c2c(O)ccc3ccccc23)c1=O | 52.6 µM | – |
| Cc1cc(-c2nc3ccc(F)cc3s2)ccc1NC(=O)[C@H](C)N | 3.6 µM | – |
| Cc1cc(Nc2ccc(S(=O)(=O)O)c3cc(S(=O)(=O)O)cc(S(=O)(=O)O)c23)c2ccccc2n1 | > 100 µM | – |
| Cc1cc(C)nc(NS(=O)(=O)c2ccc(NC(=O)c3ccc4nc5ccccc5c(Nc5ccc(S(N)(=O)=O)cc5)c4c3)cc2)n1 | > 100 µM | – |
| Nc1c(-c2ccc(Cl)c(Cl)c2)c2ccc([N+](=O)[O-])cc2c(=O)n1-c1nc2ccccc2s1 | > 100 µM | – |
| CC1(C(=O)O)CCC2(C)CCC3(C)C(=CC(=O)C4C5(C)CCC(O)C(C)(C)C5CCC43C)C2C1 (stereo unspecified) | 42.5 µM | – |
| COC(=O)c1c(C)nc2c1cc(O)c1[nH]c(C)c(C)nc12 | > 100 µM | – |
| O=[N+]([O-])c1cc(C=NC23CC4CC(CC(C4)C2)C3)ccc1Cl | 20.9 µM | – |
| COc1cc(S(=O)(=O)Nc2nc(-c3ccc(N4C(=O)C(CC(=O)O)SC4c4cccs4)cc3)cs2)ccc1Cl (stereo unspecified) | 48.9 µM | – |
| CCCCCC1=CC(=O)C1(Cl)Cl | 32.2 µM | – |
| CC(=O)N(C(=O)CC(=O)N1N=C(c2ccccc2)C(N=Nc2ccccc2[N+](=O)[O-])C1=O)c1ccc(Cl)cc1 (stereo unspecified) | > 10 µM | – |
| CC(=O)N1C(C(=O)NC2CCCCC2)CSC1c1ccccc1 (stereo unspecified) | > 100 µM | – |
| Oc1ccccc1CNCc1nc2ccccc2[nH]1 | > 100 µM | – |
| CC1(C)O[C@H]2OC(CO[Si](C)(C)C(C)(C)C)C(N=[N+]=[N-])[C@H]2O1 (stereo partly specified) | 52.6 µM | – |
| C[C@]12CCC3C4=C(CCC3C1CCC2=O)C(=O)[C@H]1O[C@H]1C4=O (stereo partly specified) | 9.34 µM | – |
| O=[N+]([O-])c1ccc(Cl)cc1N/N=C/c1ccnc2ccccc12 | > 100 µM | – |
| Oc1[nH]c2ccccc2c1N=Nc1nc(-c2ccc(Br)cc2)cs1 | 63.2 µM | – |

| Structure (SMILES) | TGI | GI50 [µM] |
| --- | --- | --- |
| CC(C)c1cc2c(cc1S(=O)(=O)O)[C@@]1(C)CCC[C@@](C)(C(=O)O)C1CC2 (stereo partly specified) | > 100 µM | – |
| N#CC(Cc1ccccc1)N(CCC1=CCCCC1)C(c1ccccc1)c1ccccc1 (stereo unspecified) | > 100 µM | – |
| C/C(=C\CBr)CCC(Br)C(C)(C)Br (stereo unspecified) | > 100 µM | – |
| O=C1CCC2(c3ccc(Cl)cc3)Nc3ccncc3N12 (stereo unspecified) | > 10 µM | – |
| Oc1ccc(Cc2cc(Cc3ccc(O)cc3)cc(Cc3ccc(O)cc3)c2)cc1 | > 50 µM | – |
| [N-]=[N+]=NC(c1ccccc1)(c1ccccc1)c1ccccc1 | 31.4 µM | – |
| C[C@]12CC[C@H](O)CC1=CC[C@@H]1[C@@H]2CC[C@]2(C)C(=N/N)/C(=N\O)C[C@@H]12 | > 100 µM | – |
| COc1ccc(CN2C(=O)/C(=C\c3cc(OC)c(OC)c(OC)c3)c3ccccc32)cc1 | 3.51 µM | 1.6 |
| CCOP(=O)(OCC)C(F)(F)c1ccc(CC(NC(=O)OC(C)(C)C)C(=O)O)cc1 (stereo unspecified) | > 10 µM | – |
| O=C(C1OC1c1ccc(Br)cc1O)C12CC3CC(CC(C3)C1)C2 (stereo unspecified) | 40.6 µM | – |
| Cc1ccccc1OC(C)C(=O)NN1C(=O)CSC1c1ccccc1 (stereo unspecified) | > 100 µM | – |
| c1ccc2c3[nH]c(c2c1)=Nc1ccc(cc1)-c1nc2cc(ccc2o1)N=c1[nH]c(c2ccccc12)=Nc1ccc2nc(oc2c1)-c1ccc(cc1)N=3 | > 100 µM | – |
| CC(C)=CCC[C@@H](C)c1c(O)c(O)c(C)c2nccnc12 | 50.5 µM | – |
| Cc1ccc(-c2cc(-c3ccco3)c(C#N)c(=S)n2C2OC(CO)C(O)C(O)C2O)cc1 (stereo unspecified) | 13.3 µM and > 100 µM | – |
| O=C(OCc1ccccc1)N1CCNCCN(C(=O)OCc2ccccc2)CCNCC1 | 70.3 µM | – |
| COc1nncc2[nH]c(-c3ccccc3)cc12 | > 100 µM | – |
| O=S(=O)(c1ccccc1)c1cccc2c1NCCC2 | > 10 µM | – |
| COP(=O)(OC)C1=c2c(C)noc2=C2C=COC2C1=O (stereo unspecified) | > 100 µM | – |
| COc1cccc(C2SC(N)=Nc3c2c(C)nn3C(=O)c2ccccc2O)c1 (stereo unspecified) | > 10 µM | – |

test system: HL-60(TB) leukemia; experiment: DTP human tumour cell line panel, 48 h

| Structure (SMILES) | TGI [µM] |
| --- | --- |
| CCOC(=O)c1c(CN2CCCC2)n(-c2ccccc2)c2cc(Br)c(O)cc12 | 27.5 |
| COc1cccc(Nc2nc(-c3cccs3)nc3cc(OC)c(OC)cc23)c1 | > 100 |
| Nn1c(-c2ccccc2)n[nH]c1=O | > 100 |
| Nn1c(Nc2ccc(S(=O)(=O)Nc3ncccn3)cc2)nnc(/C=C/c2c(O)ccc3ccccc23)c1=O | 45.2 |

— PubChem BioAssay (NCI)
